Read-outs that look alike come from different tables or passages of the source.
What was measured:
HIV-1 Bal virus = assay: Inhibitory activity on PBMCs infected with HIV-1 Bal virus (reverse transcriptase content in supernatant); type: cell-based; conditions: 5 days exposure, read-out: IC50 of inhibition of HIV-1 Bal replication in PBMCs
Procedure: The inhibitory activity of the compounds according to the invention on PBMCs (peripheral blood mononuclear cells) infected with the HIV-1 Bal virus was also measured, according to a technique adapted from that described by V. Dolle et al., J. Med. Chem., 2000, 43, 3949, 3962. According to this technique, the PMBCs are infected with HIV-1 Bal and the test compounds are then added to the culture medium for 5 days. At the end of this exposure, the content of reverse transcriptase, which is correlated with the level of viral replication in the cells, is measured in the supernatant.
Under these conditions, AZT, a reference molecule which inhibits viral replication, has an IC50 value of less than 0.1 μM.

human CCR2b receptor = target: T1, human CCR2b receptor (Homo sapiens, UniProt P41597); assay: Inhibitory activity on cells expressing the human CCR2b receptor; type: cell-based
T1 sequence (P41597 1-360 isoform P41597-2): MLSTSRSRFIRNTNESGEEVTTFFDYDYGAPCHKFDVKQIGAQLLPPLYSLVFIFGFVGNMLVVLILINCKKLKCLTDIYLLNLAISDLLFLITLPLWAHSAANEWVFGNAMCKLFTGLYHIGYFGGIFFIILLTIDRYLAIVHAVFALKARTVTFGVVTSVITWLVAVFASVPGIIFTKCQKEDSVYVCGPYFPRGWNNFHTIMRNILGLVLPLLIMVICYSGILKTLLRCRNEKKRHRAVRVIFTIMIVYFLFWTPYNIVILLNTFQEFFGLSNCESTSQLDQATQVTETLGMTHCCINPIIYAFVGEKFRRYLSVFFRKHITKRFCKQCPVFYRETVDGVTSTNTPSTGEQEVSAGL
Procedure: The inhibitory activity of the compounds according to the invention on cells expressing the human CCR2b receptor was measured.

human THP-1 monocytes = assay: Inhibition of chemotaxis on human THP-1 monocytes (adapted from Albini et al.); type: cell-based; conditions: hMCP-1
Procedure: The inhibition of chemotaxis was also measured on human THP-1 monocytes (sold by DSMZ-Germany) using a technique adapted from that described by A. Albini et al., Cancer Res., 1987, 47, 3239-3245. Under these conditions, hMCP-1 has an IC50 value of 6 nM.
The inhibition of chemotaxis by the compounds according to the invention is a sign of their antagonist activity on the chemokine receptors and in particular CCR2b.

[1] = read-out: IC50 of inhibitory activity on cells expressing the human CCR2b receptor

Molecule | melting point [°C] | IC50 (human CCR2b receptor; [1]) [nM] | further results
CCCCc1ccc(OC)c(-c2csc(NC(=O)c3ccc(C(=O)N4CCC(NC5CCOCC5)CC4)cc3)n2)c1.Cl.Cl [68] | 181 to 189 | – | –
Cc1cn([C@H]2C[C@H](N=[N+]=[N-])[C@@H](CO)O2)c(=O)[nH]c1=O [AZT] | – | – | IC50 (HIV-1 Bal virus): < 100 nM
CCOc1ccc(OCC)c(-c2csc(NC(=O)c3ccc(OCCN(CC)CC)cc3)n2)c1 [compound 12] | – | 81 | –
CCCCc1ccc(OC)c(-c2csc(NC(=O)c3ccc(CCCNC4CCOCC4)cc3)n2)c1 [compound 182, N-[4-(5-Butyl-2-methoxyphenyl)-1,3-thiazol-2-yl]-4-[3-(tetrahydro-2H-pyran-4-ylamino)propyl]benzamide] | 150 | – | –
CCCc1ccc(OC)c(-c2csc(NC(=O)c3ccc(C(=O)N4CCC(N5CC[C@@H](N(C)C)C5)CC4)cc3)n2)c1 [compound 203] | – | 93 | –
CCOc1ccc(C2CCCCC2)cc1-c1csc(NC(=O)c2ccc(C(=O)N3CCC(=O)CC3)cc2)n1 [compound 244] | 236 | 88 | –
hMCP-1: "hMCP-1 (human monocyte chemotactic protein), which belongs to the group of CC chemokines and whose actions are mediated by the CCR2b receptor" | – | – | IC50 (human CCR2b receptor; natural agonist, read-out: concentration of natural agonist hMCP-1 that inhibits 50% (IC50) of the activity of the CCR2b receptor): 0.57 nM; IC50 (human THP-1 monocytes): 6 nM

Reference: US7777041B2, “2-acylamino-4-phenylthiazole derivatives, preparation thereof and therapeutic application thereof” (sanofi-aventis, priority 2003, dated 2010)
